One data set has as its target HLA DRB1 *0101 (Homo sapiens, UniProt P01903+P01911, A100R/D57E/F55L/F60I/F76Y/I96L/L162R/M171V/P40L/Q125E/R42F/V115G/Y59C). Kind of data set: IC50nM to purified HLA | DRB1 *0101.
For data set [1], the target named is T1, HLA DRB1 *0405 (Homo sapiens, UniProt P01903+P01911, A100R/A169T/D86S/F76Y/I96L/K127E/L162R/M171V/N62H/P40V/Q125Y/R42H/S133A/S149N/S66Y/V115G/V209L/W38E). Briefly: IC50nM to purified HLA | DRB1 *0405.
Data set [2] has as its system crude extract from E. coli. Kind of data set: In situ protease assay: TNFα variants in E. coli crude extract, SDS-PAGE and Western blot. As to conditions: sequence inserted into loop EF of human TNFα, procedure of Example 2. In kind it is in vitro ADME. The protocol: In order to test the protease resistance of selected, good binding PADRE analogues, their sequences were inserted by cloning techniques into a loop (loop EF) in human TNFα. Cell-free protein crude extract from E. coli expressing the modified TNFα molecules was prepared and proteolytic cleavage within the PADRE analogue sequences was analysed by SDS-PAGE followed by immunoblotting.
A synthetic cDNA encoding TNF (Y87S) was used as template. Oligonucleotides encoding PADRE or PADRE analogues were inserted into the template between A185 and E186 by PCR (cf. above). Resulting cDNAs were cloned into pET28b+(Novagen) and transformed into E. coli strain HMS 174. For recombinant expression, the resulting E. coli strains were cultured in fermentors in a defined medium at 37° C. Induction of recombinant expression was initiated by the addition of 1 mM of IPTG and temperature was lowered to 25° C. Cultures were harvested at 4, 8 or 24 h post-IPTG induction. TNFα variants were purified to >90% homogeneity by affinity chromatography using a TNFα specific monoclonal antibody as described in Nielsen et al., (2004), J Biol. Chem. 279:33593-33600. The purified TNFα variants were characterized by MALDI-TOF mass spectrometry to verify their identity and integrity.
In Situ Protease Assay: Analysis of the Protease Resistance of TNF-α Variants Using Western Blot
Aliquots (1 ml) of E. coli cell cultures, expressing the various TNF-α variants to be tested, were centrifuged (5000 g/5 min/5° C.) and the culture medium was discarded. Cell pellets were resuspended in 1 ml of 20 mM Bis-Tris, pH 6.0. Cell disruption was achieved by sonication (4×15 sec at an amplitude of 11 μm with 20 sec pauses between each sonication round). The resulting suspensions were centrifuged (20000 g/30 min/8° C.) and the supernatants (crude extracts) were transferred to fresh tubes. Crude extracts were then analysed for protein content using a Bradford protein assay (Biorad). Equivalent amounts of proteins were loaded onto 4-12% NuPAGE gels (Novex). After SDS-PAGE, proteins were transferred onto nitrocellulose membrane by semi-dry blotting. For immunoreaction, incubation with rabbit TNFα antiserum (1 h; dilution 1:10 000) and with horse radish peroxidase-conjugated secondary antibody (Dako P448) were carried out in Tris 50 mM, NaCl 150 mM, EDTA 5 mM, Igepal 0.1%, gelatine 0.5%. Detection was with ECL™ reagents (GE Healthcare).

For a further data set, the target named is HLA DRB1 *0901 (Homo sapiens, UniProt P01903+P01911, A100R/A103E/D57H/D86V/F55Y/F60I/F76Y/I96F/K127E/L162R/M171V/P40D/Q125H/Q99R/R33Q/R42F/S133A/S66N/T210M/V115G/W38K/Y107V/Y59G/Y89S). Briefly: IC50nM to purified HLA | DRB1 *0901.
The target of the next data set is HLA DRB1 *1101 (Homo sapiens, UniProt P01903+P01911, A100R/A169T/A87E/I96F/K41T/L162R/M171V/P40S/Q125H/Q178H/Q39Y/Q99D/R42S/S66Y/T262R/V115G/W38E). Kind of data set: IC50nM to purified HLA | DRB1 *1101.
Sequence of HLA DRB1 *1101 (P01903 26-254 limits assumed, other chains not shown): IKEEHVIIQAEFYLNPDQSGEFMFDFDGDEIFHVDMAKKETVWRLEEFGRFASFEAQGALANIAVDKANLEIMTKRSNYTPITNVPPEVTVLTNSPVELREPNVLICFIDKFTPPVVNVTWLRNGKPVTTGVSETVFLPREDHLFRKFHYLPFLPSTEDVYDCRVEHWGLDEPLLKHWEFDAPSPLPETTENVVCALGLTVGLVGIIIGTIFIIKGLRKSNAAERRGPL
A further data set has as its target HLA DRB5 *0101 (Homo sapiens, UniProt P01903+Q30154). Kind of data set: IC50nM to purified HLA | DRB5 *0101. As for the experimental part:
(§1) Table printed on a drawing sheet, FIG. 1 (contd.)
Head of the field: IC50nM to purified HLA | DRB5 *0101
(§2) First copying reader's note: Continued from the preceding sheet of FIG. 1; decimal commas are used, the analog names give the substituted residues and positions in PADRE, and some values are printed in italics or bold and some SEQ ID NOs bold and underlined without a legend on this sheet.
Where the first naming reader finds the target: head: IC50nM to purified HLA | DRB5 *0101

In data set [3] the target is T2, HLA DRB1 *1302 (Homo sapiens, UniProt P01903+P01911, A100E/A169T/K41T/L162R/M171V/P40S/Q125H/Q178H/Q39Y/Q99D/R42S/S66N/T262R/V115G/W38E/Y61H). Briefly: IC50nM to purified HLA | DRB1 *1302. The protocol:
as §1
(§3) Head of the field: IC50nM to purified HLA | DRB1 *1302
as §2
(§4) Where the first naming reader finds the target: head: IC50nM to purified HLA | DRB1 *1302

For another data set, the target named is HLA DRB1 *0301 (Homo sapiens, UniProt P01903+P01911, A100K/A102G/A103R/A169T/F55Y/I96L/K41T/L162R/M171V/P40S/Q125H/Q178H/Q39Y/R42S/S66N/T106N/T262R/W38E/Y61H). Kind of data set: IC50nM to purified HLA | DRB1 *0301.
Sequence of HLA DRB1 *0301 (P01903 26-254 limits assumed, other chains not shown): as above
Data set [4] concerns the target T3, HLA DRB1 *0802 (Homo sapiens, UniProt P01903+P01911, A100R/A103L/A169T/F76Y/H45Y/I96F/K41T/L162R/M171V/P40S/Q125H/Q178H/Q39Y/Q99D/R218S/R42G/S66Y/V115G/W38E). Briefly: IC50nM to purified HLA | DRB1 *0802.
Data set [5] deals with T4, HLA DRB1 *0701 (Homo sapiens, UniProt P01903+P01911, A100R/A102G/A103Q/D57E/D86V/E43K/F76Y/K127E/L162R/M171V/P40G/Q125H/Q99D/R33Q/R42Y/R54Q/S133A/S66F/T210M/V115G/Y107V/Y59L/Y89S). Kind of data set: IC50nM to purified HLA | DRB1 *0701. The protocol: as §1
(§5) Head of the field: IC50nM to purified HLA | DRB1 *0701
as §2
(§6) Where the first naming reader finds the target: head: IC50nM to purified HLA | DRB1 *0701

The target in the next data set is HLA DRB1 *0401 (Homo sapiens, UniProt P01903+P01911, A100K/A169T/F76Y/I96L/K127E/L162R/M171V/N62H/P40V/Q125Y/R42H/S133A/S149N/S66Y/V115G/V209L/W38E). Briefly: IC50nM to purified HLA | DRB1 *0401. As for the experimental part: as §1
Head of the field: IC50nM to purified HLA | DRB1 *0401
as §2
Where the first naming reader finds the target: head: IC50nM to purified HLA | DRB1 *0401

Data set [6] concerns the target T1, HLA DRB1 *0405. Briefly: IC50nM to purified HLA | DRB1 *0405. As for the experimental part:
as §1
Head of the field: IC50nM to purified HLA | DRB1 *0405
(§7) First copying reader's note: Continued from an earlier sheet of FIG. 1; decimal commas as printed, analog names encode substituted residues and positions, and some values are printed in italics or bold and some SEQ ID NOs underlined without a legend on this sheet.
Where the first naming reader finds the target: head: IC50nM to purified HLA | DRB1 *0405
The source holds these as a separate data set.

In data set [7] the target is T2, HLA DRB1 *1302. Briefly: IC50nM to purified HLA | DRB1 *1302. The protocol: as §1, §3, §7, §4
The source holds these as a separate data set.

For a further data set, the target named is HLA DRB1 *1501 (Homo sapiens, UniProt P01903+P01911). Kind of data set: IC50nM to purified HLA | DRB1 *1501. The protocol: as §1
Head of the field: IC50nM to purified HLA | DRB1 *1501
as §7
Where the first naming reader finds the target: head: IC50nM to purified HLA | DRB1 *1501

The next data set addresses HLA DRB1 *0404 (Homo sapiens, UniProt P01903+P01911, A100R/A169T/F76Y/I96L/K127E/L162R/M171V/N62H/P40V/Q125Y/R42H/S133A/S149N/S66Y/V209L/W38E). Kind of data set: IC50nM to purified HLA | DRB1 *0404. The protocol: as §1
Head of the field: IC50nM to purified HLA | DRB1 *0404
as §7
Where the first naming reader finds the target: head: IC50nM to purified HLA | DRB1 *0404

The next data set deals with HLA DRB4 *0101 (Homo sapiens, UniProt P01903+P13762, G164S). Briefly: IC50nM to purified HLA | DRB4 *0101. The protocol: as §1
Sequence of HLA DRB4 *0101 (P01903 26-254 limits assumed): as the sequence (P01903 26-254 limits assumed, other chains not shown) above
Sequence of HLA DRB4 *0101 (P13762 whole entry G164S): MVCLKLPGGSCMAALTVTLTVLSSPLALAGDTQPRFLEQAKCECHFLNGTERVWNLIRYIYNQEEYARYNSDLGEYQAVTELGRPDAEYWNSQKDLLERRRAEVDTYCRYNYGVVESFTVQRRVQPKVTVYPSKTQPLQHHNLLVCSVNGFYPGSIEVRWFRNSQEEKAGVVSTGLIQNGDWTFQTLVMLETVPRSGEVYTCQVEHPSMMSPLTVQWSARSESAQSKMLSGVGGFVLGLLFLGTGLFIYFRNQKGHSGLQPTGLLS
Head of the field: IC50nM to purified HLA | DRB4 *0101
as §7
Where the first naming reader finds the target: head: IC50nM to purified HLA | DRB4 *0101

Data set [8] addresses T4, HLA DRB1 *0701. Kind of data set: IC50nM to purified HLA | DRB1 *0701. As for the experimental part:
as §1, §5, §7, §6
This is another data set of the same source.

Data set [9] concerns the target T3, HLA DRB1 *0802. Kind of data set: IC50nM to purified HLA | DRB1 *0802. As for the experimental part: as §1
Head of the field: IC50nM to purified HLA | DRB1 *0802
as §7
Where the first naming reader finds the target: head: IC50nM to purified HLA | DRB1 *0802
This is another data set of the same source.

Like-named read-outs stand apart in the source and are kept apart here. Where no end group is shown, it is not given here.

T2 sequence (P01903 26-254 limits assumed, other chains not shown): as the sequence (P01903 26-254 limits assumed, other chains not shown) above

AAAHFVAANTLHAAA [SEQ ID NO: 29]: the IC50 against HLA DRB1 *0101 was 4.1 nM; against HLA DRB1 *0405 [1], 18 nM; on HLA DRB1 *0901, 37 nM; against HLA DRB1 *1101, 22 nM; at HLA DRB5 *0101, 33 nM; against HLA DRB1 *1302 [3], 47 nM. The IC50 on HLA DRB1 *0301 stood at 361 nM; at HLA DRB1 *0802 [4], 17 nM; against HLA DRB1 *0701 [5], 76 nM; against HLA DRB1 *0401 it was 4.5 nM. For the same sequence, the “protease resistance of PADRE analogue sequence” value in data set [2] is listed as “increased resistance towards proteolytic degradation”.
Turning to AAAIFVAAWTLHAAA [SEQ ID NO: 69], the “protease resistance of PADRE analogue sequence” value in data set [2] is “increased resistance towards proteolytic degradation”. The IC50 stood at 13 nM at HLA DRB1 *0405 [6]; 891 nM at HLA DRB1 *1302 [7]; 9.4 nM at HLA DRB1 *1501; 3.7 nM at HLA DRB1 *0404; 84 nM against HLA DRB4 *0101; 78 nM at HLA DRB1 *0701 [8]. The same sequence showed an IC50 on HLA DRB1 *0802 [9] of 12 nM.

The values are drawn from US9789181B2, “PAN-DR binding polypeptides and uses thereof” (Epimmune Inc., priority 2009, dated 2017).
